Measurements as given in patent publication US20110250134A1, “SUSTAINED RELEASE NITRIC OXIDE FROM LONG LIVED CIRCULATING NANOPARTICLES” (priority 2010, published 2011).

Assay: Total NO released (NO agents decomposition)
Type: physicochemical
Method: Total NO released (NO agents decomposition). Gaseous NO levels were measured using a chemiluminescent NO analyzer (Sievers NO analyzer, Model 280i, Boulder, Colo.). […] Solutions were continuously bubbled with pure nitrogen (0.2 L/min). The gas phase was collected into the NO analyzer for a minute every 10 min., and the excess flow was evacuated through an underwater seal (1 cm H2O).

NO liberated experimentally	SMILES
10.7 μmols of NO/mg	NCCN(CCN)/[N+]([O-])=N/O [DETA NONOate, Diethylenetriamine NONOate]
9.4 µmol/mg	NCCCN(CCCN)/[N+]([O-])=N/O [DPTA NONOate, Dipropylenetriamine NONOate]
